Reference: patent US20260001886A1, “ENPP1 INHIBITORS I” (RE Ventures I, LLC, priority 2024, published 2026)

Columns and labels:
Human ENPP1 = Human ENPP1 (Homo sapiens (Human), UniProt P22413)
Procedure: ENPP1 catalyses the hydrolysis of ATP into AMP+PPi. AMP production was monitored using Bellbrooks Transcreener AMP/GMP TR-FRET assay kit (Cat No. 3020-10K) according to the manufacturer's instructions. The assay was run with 50 mM Tris pH 7.5, 5 mM MgCl2, 150 mM NaCl, 0.005% Tween20 and distilled H2O. Antibody and tracer were diluted to 2 nM. […] Mouse ENPP1 was run at 15 pM with ATP at 400 nM. AMP produced in the assay by ENPP1 activity competes with a far-red tracer labelled AMP bound to an AMP specific antibody resulting in a decrease in TR-FRET. ENPP1 inhibition reduces AMP production and increases the TR-FRET signal.

human CA-II (CA2) = human CA-II (CA2) (Homo sapiens (Human), UniProt P00918); test: Surface plasmon resonance, carbonic anhydrase II; conditions: 25° C., CM5 chip
Procedure: (§1) Cytiva Biacore S200, T200 and 3000 machines were used for all SPR experiments. […] For carbonic anhydrases, data were collected at a constant temperature of 25° C. Human CA-I (CA1) or human CA-II (CA2) was captured via standard EDC/NHS protocol on a Biacore CM5 chip using standard protocols in HBS-N buffer (10 mM HEPES (pH 7.4), 150 mM NaCl) at ˜2000 RU. The experiments were run in PBS buffer containing 0.05% Tween 20 and 3% DMSO. All compounds were initially screened at concentrations ranging from 23 nM to 50 µM or 4.6 nM to 10 µM, injecting from the lowest to highest concentrations and adjusting appropriately for each compound for repeat experiments. Scrubber 2 (Biologic software) was used to process and analyse SPR data. […] Data for the inhibitors were referenced to those for a blank surface and blank injections to normalise for non-specific binding and drift. A DMSO calibration was run to remove excluded volume effect of binding responses between reference and target surface.

human CA-I (CA1) = human CA-I (CA1) (Homo sapiens (Human), UniProt P00915); test: Surface plasmon resonance, carbonic anhydrase I; conditions: 25° C., CM5 chip
human CA-I (CA1), sequence (P00915 whole entry): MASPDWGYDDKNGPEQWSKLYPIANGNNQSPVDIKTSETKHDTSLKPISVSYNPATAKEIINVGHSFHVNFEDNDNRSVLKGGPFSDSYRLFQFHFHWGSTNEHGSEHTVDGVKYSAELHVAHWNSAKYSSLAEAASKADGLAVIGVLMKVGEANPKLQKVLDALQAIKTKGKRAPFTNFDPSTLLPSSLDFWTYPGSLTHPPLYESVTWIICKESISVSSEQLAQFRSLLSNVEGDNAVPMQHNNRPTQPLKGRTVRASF
Procedure: as §1

Human ENPP1, sequence (P22413 whole entry): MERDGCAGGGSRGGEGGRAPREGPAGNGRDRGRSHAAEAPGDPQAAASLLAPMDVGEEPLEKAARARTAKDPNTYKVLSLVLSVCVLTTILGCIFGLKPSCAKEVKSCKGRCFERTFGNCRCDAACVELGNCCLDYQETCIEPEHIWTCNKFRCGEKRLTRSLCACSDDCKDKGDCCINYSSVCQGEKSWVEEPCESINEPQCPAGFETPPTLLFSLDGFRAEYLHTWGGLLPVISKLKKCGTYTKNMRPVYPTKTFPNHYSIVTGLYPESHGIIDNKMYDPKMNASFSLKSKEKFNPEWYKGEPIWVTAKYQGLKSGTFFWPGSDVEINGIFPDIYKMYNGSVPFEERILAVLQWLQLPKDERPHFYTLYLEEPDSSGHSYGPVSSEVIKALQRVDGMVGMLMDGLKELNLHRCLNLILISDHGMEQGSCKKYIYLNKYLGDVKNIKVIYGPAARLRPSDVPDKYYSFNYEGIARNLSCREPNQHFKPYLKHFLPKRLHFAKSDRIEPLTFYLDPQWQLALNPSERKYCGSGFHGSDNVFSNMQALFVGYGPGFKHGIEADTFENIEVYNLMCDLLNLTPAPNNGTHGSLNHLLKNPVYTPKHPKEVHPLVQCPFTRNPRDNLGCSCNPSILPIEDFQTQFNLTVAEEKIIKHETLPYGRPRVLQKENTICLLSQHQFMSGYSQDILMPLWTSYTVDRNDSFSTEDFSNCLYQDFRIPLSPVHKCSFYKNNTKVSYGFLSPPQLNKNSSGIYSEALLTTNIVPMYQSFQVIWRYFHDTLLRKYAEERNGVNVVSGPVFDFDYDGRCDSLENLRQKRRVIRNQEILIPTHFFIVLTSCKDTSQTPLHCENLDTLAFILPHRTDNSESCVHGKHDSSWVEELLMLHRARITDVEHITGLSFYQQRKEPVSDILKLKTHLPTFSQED

Row | SMILES | EC50 (Human ENPP1) | CA2 human SPR pKD (human CA-II (CA2)) | CA1 human SPR pKD (human CA-I (CA1))
1 | CC(C)c1cn(Cc2ccc(S(C)(=N)=O)c(C(F)(F)F)c2)c2cc(C3CC3)nn2c1=O (stereo not drawn) [Compound 20, 2-cyclopropyl-6-isopropyl-4-(4-(S-methylsulfonimidoyl)-3-(trifluoromethyl)benzyl) pyrazolo[1,5-a]pyrimidin-7(4H)-one] | 6.31 nM |  | 
2 | Cc1nc2n(C[C@H]3C[C@H]4C[C@@H]3CN4S(N)(=O)=O)cc(-c3ccc(F)cc3)c(=O)n2n1 [Compound 14, (1S,4S,5S)-5-((6-(4-fluorophenyl)-2-methyl-7-oxo-[1,2,4]triazolo[1,5-a]pyrimidin-4(7H)-yl)methyl)-2-azabicyclo[2.2.1]heptane-2-sulfonamide] | 3.98 nM | 3.0 | <1
3 | CC(C)c1cn(C[C@H]2C[C@H]3C[C@@H]2CN3S(N)(=O)=O)c2c3cccnc3nn2c1=O [Compound 41, (1S,4S,5S)-5-((3-Isopropyl-4-oxopyrido[2′,3′: 3,4]pyrazolo[1,5-a]pyrimidin-1 (4H)-yl)methyl)-2-azabicyclo[2.2.1]heptane-2-sulfonamide] |  | 3.0 | 3.0
4 | CC(C)c1cn(Cc2ccc(S(C)(=N)=O)cc2F)c2nc(C3CC3)nn2c1=O (stereo not drawn) [Compound 12, 2-cyclopropyl-4-(2-fluoro-4-(S-methylsulfonimidoyl)benzyl)-6-isopropyl-[1,2,4]triazolo[1,5-a]pyrimidin-7(4H)-one] |  | 3.0 | <1
5 | COCc1nc2n(Cc3ccc(S(C)(=N)=O)cc3)cc(C(C)C)c(=O)n2n1 (stereo not drawn) [Compound 33, 6-isopropyl-2-(methoxymethyl)-4-(4-(S-methylsulfonimidoyl)benzyl)-[1,2,4]triazolo[1,5-a]pyrimidin-7(4H)-one] | 7.94 nM |  | 
6 | Cc1nn2c(=O)c(C(C)C)cn(C[C@H]3C[C@H]4C[C@@H]3CN4S(N)(=O)=O)c2c1Cl [Compound 4, (1S,4S,5S)-5-((3-chloro-6-isopropyl-2-methyl-7-oxopyrazolo[1,5-a]pyrimidin-4(7H)-yl)methyl)-2-azabicyclo[2.2.1]heptane-2-sulfonamide] |  | 4.9 | 3.0
7 | Cc1nc2n(C[C@H]3C[C@H]4C[C@@H]3CN4S(N)(=O)=O)cc(-c3cccnc3)c(=O)n2n1 [Compound 2, (1S,4S,5S)-5-((2-methyl-7-oxo-6-(pyridin-3-yl)-[1,2,4]triazolo[1,5-a]pyrimidin-4(7H)-yl)methyl)-2-azabicyclo[2.2.1]heptane-2-sulfonamide] | 251 nM |  | 
8 | CC(C)c1cn(Cc2ccc(S(C)(=N)=O)cc2)c2nc(OC3CC3)nn2c1=O (stereo not drawn) [Compound 25, 2-cyclopropoxy-6-isopropyl-4-(4-(S-methylsulfonimidoyl)benzyl)-[1,2,4]triazolo[1,5-a]pyrimidin-7(4H)-one] | 6.31 nM |  | 
9 | CC(C)c1cn(Cc2ccc([S@](C)(=N)=O)cc2F)c2nc(C3CC3)nn2c1=O (single isomer, unassigned) [Compound 69] |  | <1 | <1
10 | Cc1cc2n(Cc3ccc([S@](C)(=N)=O)cc3)cc(C(C)C)c(=O)n2n1 (single isomer, unassigned) [Compound 9B] |  | <1 | <1
11 | CC(C)c1cn(C[C@H]2C[C@H]3C[C@@H]2CN3S(N)(=O)=O)c2nc(Cl)nn2c1=O [Compound 34, (1S,4S,5S)-5-((2-chloro-6-isopropyl-7-oxo-[1,2,4]triazolo[1,5-a]pyrimidin-4(7H)-yl)methyl)-2-azabicyclo[2.2.1]heptane-2-sulfonamide] | 15.8 nM |  | 

Next, values leading:

Row | EC50 (Human ENPP1) | CA2 human SPR pKD (human CA-II (CA2)) | CA1 human SPR pKD (human CA-I (CA1)) | SMILES
12 | 31.6 nM |  |  | CC(C)c1cn(Cc2ccc3c(c2)CCS3(=N)=O)c2nc(C3CC3)nn2c1=O (stereo not drawn) [Compound 48, 2-Cyclopropyl-4-((1-imino-1-oxido-2,3-dihydro-1H-1l4-benzo[b]thiophen-5-yl)methyl)-6-isopropyl-[1,2,4]triazolo[1,5-a]pyrimidin-7(4H)-one]
13 |  | 3.0 | <1 | CC(C)c1cn(Cc2ccc(S(C)(=N)=O)cc2)c2cc(C3CC3)nn2c1=O (stereo not drawn) [Compound 57, 2-Cyclopropyl-6-isopropyl-4-(4-(S-methylsulfonimidoyl)benzyl)pyrazolo[1,5-a]pyrimidin-7(4H)-one]
14 | 7.94 nM |  |  | CC(C)c1cn(Cc2ccc(S(=N)(=O)C(C)C)cc2)c2nc(C3CC3)nn2c1=O (stereo not drawn) [Compound 64, 2-Cyclopropyl-6-isopropyl-4-(4-(propan-2-ylsulfonimidoyl)benzyl)-[1,2,4]triazolo[1,5-a]pyrimidin-7(4H)-one]
15 |  | 3.0 | <1 | CC(C)c1cn(Cc2ccc(S(C)(=N)=O)cc2F)c2cc(C3CC3)nn2c1=O (stereo not drawn) [Compound 62, 2-Cyclopropyl-4-(2-fluoro-4-(S-methylsulfonimidoyl)benzyl)-6-isopropylpyrazolo[1,5-a]pyrimidin-7(4H)-one]
16 | 100 nM |  |  | CC(C)c1cn(Cc2ccc3c(c2)OCCS3(=N)=O)c2nc(C3CC3)nn2c1=O (stereo not drawn) [Compound 53, 2-Cyclopropyl-4-((4-imino-4-oxido-3,4-dihydro-2H-4lambda4-benzo[b][1,4]oxathiin-7-yl)methyl)-6-isopropyl-[1,2,4]triazolo[1,5-a]pyrimidin-7(4H)-one]
17 | 3.98 nM | 3.8 | 3.0 | Cc1cc(S(C)(=N)=O)ccc1Cn1cc(C(C)C)c(=O)n2nc(C3CC3)cc12 (stereo not drawn) [Compound 61, 2-Cyclopropyl-6-isopropyl-4-(2-methyl-4-(S-methylsulfonimidoyl)benzyl)pyrazolo[1,5-a]pyrimidin-7(4H)-one]
18 | 10 nM |  |  | CC(C)c1cn(Cc2ccc(S(C)(=N)=O)c(F)c2)c2nc(C3CC3)nn2c1=O (stereo not drawn) [Compound 63, 2-Cyclopropyl-4-(3-fluoro-4-(S-methylsulfonimidoyl)benzyl)-6-isopropyl-[1,2,4]triazolo[1,5-a]pyrimidin-7(4H)-one]
19 | 126 nM |  |  | Cc1nc2n(Cc3ccc4c(c3)CCCS4(=N)=O)cc(C(C)C)c(=O)n2n1 (stereo not drawn) [Compound 52, 4-((1-Imino-1-oxido-1/4-thiochroman-6-yl)methyl)-6-isopropyl-2-methyl-[1,2,4]triazolo[1,5-a]pyrimidin-7(4H)-one]
20 | 6.31 nM |  |  | CC(C)c1cn(C[C@H]2C[C@H]3C[C@@H]2CN3S(N)(=O)=O)c2c(C#N)c(C3CC3)nn2c1=O [Compound 45, (1S,4S,5S)-5-((3-Cyano-2-cyclopropyl-6-isopropyl-7-oxopyrazolo[1,5-a]pyrimidin-4(7H)-yl)methyl)-2-azabicyclo[2.2.1]heptane-2-sulfonamide]
21 | 6.31 nM |  |  | CC(C)c1cn(Cc2ccc([S@@](=N)(=O)C(C)C)cc2)c2nc(C3CC3)nn2c1=O (single isomer, unassigned) [Compound 68]
22 |  | 4.5 | 3.0 | COc1cccc2c1nn1c(=O)c(C(C)C)cn(C[C@H]3C[C@H]4C[C@@H]3CN4S(N)(=O)=O)c21 [Compound 42, (1S,4S,5S)-5-((3-Isopropyl-7-methoxy-4-oxopyrimido[1,2-b]indazol-1 (4H)-yl)methyl)-2-azabicyclo[2.2.1]heptane-2-sulfonamide]
23 | 1.26 nM |  |  | Cc1cc([S@@](C)(=N)=O)ccc1Cn1cc(C(C)C)c(=O)n2nc(C3CC3)cc12 (single isomer, unassigned) [Compound 66]
24 | 31.6 nM |  |  | CC(C)c1cn(Cc2ccc(S(=N)(=O)C(F)F)cc2)c2nc(C3CC3)nn2c1=O (single isomer, unassigned) [Compound 50]
